This passage reports IC50 results from patent US9227971B2, “Pyrazolo[1,5-a]pyrimidine compounds as mTOR inhibitors” (Merck Sharp & Dohme Corp., priority 2010, dated 2016).

In assay [1] the test system is phosphorylated AKT Ser473 (pAKT S473), mTORC2 activity, PC3 cells. Description: mTOR target engagement assay, immunofluorescent cell-based, pAKT S473 readout (mTORC2 activity). Conditions: Homo sapiens. In outline:
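After blocking, cells were stained overnight at 4 °C with anti-pAKT S473 antibody, then a fluorescent secondary; inhibition was read as reduced fluorescence intensity.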

The subject of assay [2] is phosphorylated 4E-BP1 Thr37/46 (p4E-BP1 Thr37/46), mTORC1 activity, PC3 cells. Description: mTOR target engagement assay, immunofluorescent cell-based, p4E-BP1 Thr37/46 readout (mTORC1 activity). To be noted: Homo sapiens, read-out: p4E-BP1 Thr37/46 IC50. How it is done: The target engagement of mTOR kinase inhibitors was evaluated using an immunofluorescent cell-based assay. In this assay, inhibition of mTORC1 activity was measured by the reduction in the level of phosphorylated 4E-BP1^[…] (p4E-BP1 Thr37/46), and inhibition of mTORC2 activity was measured by the reduction of phosphorylated AKT^Ser473 (pAKT S473).
PC3 cells (prostate tumor cell-line that contains a mutation in the tumor suppressor PTEN, that promotes the phosphorylation and activation of AKT and 4E-BP1) were used in the immunofluorescence assay. PC3 cells were seeded on 384 well plates (black clear bottom, Matrix #4332) overnight. PC3 cells were then treated with 40 μl of the serially diluted test compounds (in 5% fetal bovine serum, F12 medium containing 0.25% DMSO) for ninety minutes at 37° C. The test compound solution was removed, and the plates were washed gently two times with 25 μl phosphate buffered saline (PBS). The cells were fixed by adding 25 μl of Prefer reagent (from Anatech LTD, Cat#414, a glyoxal fixative for fixing proteins within a cell) for sixty minutes followed by three washes with PBS. 5% Goat serum in PBS/0.3% Triton was used to block non-specific binding (60 minutes).
The primary antibodies targeting pAKT S473 and p4E-BP1 Thr37/46 were diluted into PBS/0.3% Triton and incubated with the cells overnight at 4° C. The antibodies targeting pAKTS473 (Cat#4085, Cell signaling) and p4E-BP1 Thr37/46 (Cat#2855, Cell signaling) were used at a 1:100 dilution. Plates were washed three times with PBS/0.1% Tween 20 before adding the secondary antibody at a 1:200 dilution. (goat anti-rabbit containing a fluorescent label, Alexa Fluor 488, Cat#A11008, Invitrogen) in PBS/0.3% Triton for 60 minutes.
Finally, the plates were washed three times with PBS/0.1% Tween 20 and the fluorescent intensity was read using an Analyst HT from Molecular Devices. The fluorescent intensity values from the serially diluted compound treatment group were analyzed using the Xlfit 4 program ([…]) (Formula 205: Y=Bottom+(Top-Bottom)/(1+(IC50/X)^Hillslope) to generate the IC50 value. Where Top is the maximum signal without Compound (+DMSO only) and Bottom represents maximum inhibition. Y is the fluorescence at some compound concentration. The control used to determine the fluorescent intensities for 100% pAKT S473 or 100% phosphorylated p4E-BP1 Thr37/46 were measured from untreated wells that contained only DMSO, instead of test compound.

The mark [3] stands for this setting: PC-3, PC3 cells, compound treatment ninety minutes at 37° C.

Read-outs that look alike come from different tables or passages of the source.

Take `CS(=O)(=O)c1c(C2CC3COCC(C2)N3C(=O)c2nc[nH]n2)nc2c(-c3ccc(-c4ccccc4)nc3)cnn2c1N` (centres unmarked) [Compound 8.29, (7-(7-amino-6-(methylsulfonyl)-3-(6-phenylpyridin-3-yl)pyrazolo[1,5-a]pyrimidin-5-yl)-3-oxa-9-azabicyclo[3.3.1]nonan-9-yl)(1H-1,2,4-triazol-3-yl)methanone]: the IC50 in assay [1] (PC-3, PC3 cells) was in the range of 1 to 100 nM; in assay [2] (PC-3, PC3 cells), 1 to 100 nM.

For `CC(=O)C(=O)N1[C@@H]2CC[C@H]1C[C@H](c1nc3c(-c4ccc(-c5ccccc5)nc4)cnn3c(N)c1C(C)=O)C2` [Compound 1.1.117, 1-((1R,3s,5S)-3-(6-acetyl-7-amino-3-(6-phenylpyridin-3-yl)pyrazolo[1,5-a]pyrimidin-5-yl)-8-azabicyclo[3.2.1]octan-8-yl)propane-1,2-dione], the IC50 in assay [1] (setting [3]) and in assay [2] (setting [3]) was 100 to 1000 nM throughout.

Take `CS(=O)(=O)c1c([C@@H]2C[C@H]3CC[C@@H](C2)N3C(=O)c2nnc[nH]2)nc2c(-c3ccc(-c4ncccc4F)nc3)cnn2c1N` [Compound 3.48, ((1R,3s,5S)-3-(7-amino-3-(3′-fluoro-2,2′-bipyridin-5-yl)-6-(methylsulfonyl)pyrazolo[1,5-a]pyrimidin-5-yl)-8-azabicyclo[3.2.1]octan-8-yl)(4H-1,2,4-triazol-3-yl)methanone]: the IC50 in assay [1] (PC-3, Table 3-1, PC3 cells) is 1 to 100 nM; in assay [2] (PC-3, Table 3-1, PC3 cells), 1 to 100 nM.

As for `CC(=O)c1c([C@@H]2C[C@H]3CC(O)[C@@H](C2)N3C(=O)CO)nc2c(-c3ccc(-c4ccccc4)nc3)cnn2c1N` (stereo partly drawn) [Compound 8.35, 1-((1S,3R,5R)-3-(6-acetyl-7-amino-3-(6-phenylpyridin-3-yl)pyrazolo[1,5-a]pyrimidin-5-yl)-6-hydroxy-8-azabicyclo[3.2.1]octan-8-yl)-2-hydroxyethanone], the IC50 was in the range of 1 to 100 nM in assay [1] (PC-3, PC3 cells) and 1 to 100 nM in assay [2] (PC-3, PC3 cells).

Take `CS(=O)(=O)c1c([C@H]2CC3CC[C@H](C2)N3C(=O)c2nnc[nH]2)nc2c(-c3cnc4c(c3)CCCC4O)cnn2c1N` (stereo partly drawn) [Compound 7.53, ((1R,3s,5S)-3-(7-amino-3-(8-hydroxy-5,6,7,8-tetrahydroquinolin-3-yl)-6-(methylsulfonyl)pyrazolo [1,5-a]pyrimidin-5-yl)-8-azabicyclo[3.2.1]octan-8-yl)(4H-1,2,4-triazol-3-yl)methanone]: the IC50 was 100 to 1000 nM in assay [1] (PC-3, PC3 cells) and 100 to 1000 nM in assay [2] (PC-3, PC3 cells).

For `CC(=O)c1c([C@@H]2C[C@H]3CC[C@@H](C2)N3C(=O)c2nnc(N)[nH]2)nc2c(-c3ccc(C(N)(C(F)(F)F)C(F)(F)F)nc3)cnn2c1N` [Compound 7.83], the IC50 in assay [1] (PC-3, PC3 cells) was 1000 to 10000 nM; in assay [2] (PC-3, PC3 cells), 100 to 1000 nM.

As to `Nc1nnc(C(=O)N2[C@@H]3CC[C@H]2C[C@H](c2nc4c(-c5ccc(C(N)(C(F)(F)F)C(F)(F)F)nc5)cnn4c(N)c2C2CC2)C3)[nH]1` [Compound 7.88, ((1R,3s,5S)-3-(7-amino-3-(6-(2-amino-1,1,1,3.3,3-hexafluoropropan-2-yl)pyridin-3-yl)-6-cyclopropylpyrazolo [1,5-a]pyrimidin-5-yl)-8-azabicyclo[3.2.1]octan-8-yl)(5-amino-4H-1,2,4-triazol-3-yl)methanone], the IC50 in assay [1] (PC-3, PC3 cells) fell in the range of 1000 to 10000 nM; in assay [2] (PC-3, PC3 cells), 1000 to 10000 nM.

For `Cn1ccc(-c2ccc(-c3cnn4c(N)c(C5CC5)c([C@@H]5C[C@H]6CC[C@@H](C5)N6C(=O)c5nnc[nH]5)nc34)cn2)n1` [Compound 4.17, ((1R,3s,5S)-3-(7-amino-6-cyclopropyl-3-(6-(1-methyl-1H-pyrazol-3-yl)pyridin-3-yl)pyrazolo[1,5-a]pyrimidin-5-yl)-8-azabicyclo[3.2.1]octan-8-yl)(4H-1,2,4-triazol-3-yl)methanone], the IC50 in assay [1] (setting [3]) and in assay [2] (setting [3]) was 1 to 100 nM in each case.

On to `CS(=O)(=O)c1c([C@@H]2C[C@H]3CC[C@@H](C2)N3C(=O)c2nnc[nH]2)nc2c(-c3ccc(C4(O)CCC4)nc3)cnn2c1N` [Compound 7.41, ((1R,3s,5S)-3-(7-amino-3-(6-(1-hydroxycyclobutyl)pyridin-3-yl)-6-(methylsulfonyl)pyrazolo [1,5-a]pyrimidin-5-yl)-8-azabicyclo[3.2.1]octan-8-yl)(4H-1,2,4-triazol-3-yl)methanone], for which the IC50 was 1 to 100 nM in assay [1] (PC-3, Table 7-8, PC3 cells) and 1 to 100 nM in assay [2] (PC-3, Table 7-8, PC3 cells).

Turning to `CS(=O)(=O)c1c([C@@H]2C[C@H]3CC[C@@H](C2)N3C(=O)CO)nc2c(-c3cn[nH]c3)cnn2c1N` [Compound 3.114, 1-((1R,3s,5S)-3-(7-amino-6-(methylsulfonyl)-3-(1H-pyrazol-4-yl)pyrazolo[1,5-a]pyrimidin-5-yl)-8-azabicyclo[3.2.1]octan-8-yl)-1-hydroxyethanone], the IC50 in assay [1] (PC-3, Table 3-1, PC3 cells) is > 10000 nM; in assay [2] (PC-3, Table 3-1, PC3 cells), > 10000 nM.

Consider `CC(=O)c1c(C2CC3CCC(C2)N3C(=O)c2nn[nH]n2)nc2c(-c3ccc(-c4ccccc4)nc3)cnn2c1N` [Compound 1.1.24, 1-(5-((1R,3s,5S)-8-(1H-tetrazole-5-carbonyl)-8-azabicyclo[3.2.1]octan-3-yl)-7-amino-3-(6-phenylpyridin-3-yl)pyrazolo[1,5-a]pyrimidin-6-yl)ethanone], for which the IC50 in assay [1] (setting [3]) and in assay [2] (setting [3]) was 1000 to 10000 nM each time.

`Cc1nnc(C(=O)N2[C@@H]3CC[C@H]2C[C@H](c2nc4c(-c5ccc(-c6ncc(C)s6)nc5)cnn4c(N)c2S(C)(=O)=O)C3)[nH]1` [Compound 3.184, ((1R,3s,5S)-3-(7-amino-6-(methylsulfonyl)-3-(6-(5-methylthiazol-2-yl)pyridin-3-yl)pyrazolo[1,5-a]pyrimidin-5-yl)-8-azabicyclo[3.2.1]octan-8-yl)(5-methyl-4H-1,2,4-triazol-3-yl)methanone]: the IC50 in assay [1] (PC-3, Table 3-1, PC3 cells) was in the range of 1 to 100 nM; in assay [2] (PC-3, Table 3-1, PC3 cells), 1 to 100 nM.

Turning to `[2H]C([2H])([2H])Oc1ccc(-c2ccc(-c3cnn4c(N)c(C(C)=O)c([C@@H]5C[C@H]6CC[C@@H](C5)N6C(=O)CO)nc34)cn2)cc1` [Compound 1.1.78, 1-((1R,3s,5S)-3-(6-acetyl-7-amino-3-(6-(4-methoxy-(D3)-phenyl)pyridin-3-yl)pyrazolo[1,5-a]pyrimidin-5-yl)-8-azabicyclo[3.2.1]octan-8-yl)-2-hydroxyethanone], the IC50 in assay [1] (setting [3]) and in assay [2] (setting [3]) was 1 to 100 nM each time.

With `CS(=O)(=O)c1c([C@H]2CC3CC[C@H](C2)N3C(=O)c2ncn[nH]2)nc2c(-c3ccc(C4CCC4)nc3)cnn2c1N` [Compound 3.167, ((1R,3s,5S)-3-(7-amino-3-(6-cyclobutylpyridin-3-yl)-6-(methylsulfonyl)pyrazolo[1,5-a]pyrimidin-5-yl)-8-azabicyclo[3.2.1]octan-8-yl)(1H-1,2,4-triazol-5-yl)methanone], the IC50 lay in the range of 100 to 1000 nM in assay [1] (PC-3, Table 3-1, PC3 cells) and 100 to 1000 nM in assay [2] (PC-3, Table 3-1, PC3 cells).

Turning to `CS(=O)(=O)c1c([C@@H]2C[C@H]3CC[C@@H](C2)N3C(=O)c2cn[nH]c2O)nc2c(-c3ccc(-c4ccccc4)nc3)cnn2c1N` [Compound 3.94, ((1R,3s,5S)-3-(7-amino-6-(methylsulfonyl)-3-(6-phenylpyridin-3-yl)pyrazolo[1,5-a]pyrimidin-5-yl)-8-azabicyclo[3.2.1]octan-8-yl)(5-hydroxy-1H-pyrazol-4-yl)methanone], the IC50 in assay [1] (PC-3, Table 3-1, PC3 cells) lay in the range of 100 to 1000 nM; in assay [2] (PC-3, Table 3-1, PC3 cells), 100 to 1000 nM.

In the case of `Cc1csc(-c2ccc(-c3cnn4c(N)c(S(C)(=O)=O)c([C@@H]5C[C@H]6CC[C@@H](C5)N6C(=O)c5nnc(C)[nH]5)nc34)cn2)n1` [Compound 3.191, ((1R,3s,5S)-3-(7-amino-6-(methylsulfonyl)-3-(6-(4-methylthiazol-2-yl)pyridin-3-yl)pyrazolo[1,5-a]pyrimidin-5-yl)-8-azabicyclo[3.2.1]octan-8-yl)(5-methyl-4H-1,2,4-triazol-3-yl)methanone], the IC50 was 100 to 1000 nM in assay [1] (PC-3, Table 3-1, PC3 cells) and 100 to 1000 nM in assay [2] (PC-3, Table 3-1, PC3 cells).
